Measured values published in patent US6140368A, “Naphthols useful in antiviral methods” (The Regents of the University of California, priority 1998, dated 2000).
pIC50: −log10 of the molar value. Read-outs that look alike come from different tables or passages of the source.

Tests used:
HIV integrase [1] = molecular target: T1, HIV integrase (Human immunodeficiency virus type 1 group M subtype B, UniProt P04585); assay: biochemical
HIV integrase [2] = molecular target: T1, HIV integrase; assay: biochemical; remark: listed apart in the source
[3] = molecular target: HIV reverse transcriptase (Human immunodeficiency virus type 1 group M subtype B, UniProt P03366); assay: Reverse transcriptase scintillation proximity assay (Example 4, Table 2); type: biochemical; details: for pIC50: read-out: IC50 (RT activity); for remaining activity at 10 µM: 0.05 h, read-out: % RT activity remaining at 10 μM
Procedure, shortened: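 Purified RT with biotinylated 17mer/50mer RNA-DNA template-primer (39 nm), pH 8.0 Tris with 10 mM MgCl2, 60 mM KCl, dNTPs plus tritiated dTTP; inhibitor preincubated 10 min at 37 °C before enzyme, reaction 3 min. Incorporation read by streptavidin SPA counting.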

HIV = assay: Cell-based anti-HIV (XTT) assay (National Institutes of Health); details: run by the National Institutes of Health
Excerpt: The anti-viral evaluations branch of the National Institutes of Health also ran cell-based anti-HIV (XTT) assays and reverse transcriptase (RT) assays on a number of the novel compounds. […] These were: 31, 32, 35, 36, 53, 54, 57, 58, 91, 99, and 103.

[4] = read-out: Inhibition of strand transfer (IC50)
[5] = read-out: Inhibition of 3' processing activity (IC50)
[6] = 10 μM inhibitor, relative to dimethyl sulfoxide = 100%
[7] = Inhibition of strand transfer (IC50)
[8] = Inhibition of 3' processing activity (IC50)

SMILES	pIC50 (HIV integrase [1]; [4])	pIC50 (HIV integrase [2]; [5])	pIC50 [3]	conclusion of cell-based anti-HIV (XTT) assays and reverse transcriptase (RT) assays (HIV)	remaining activity at 10 µM [3, 6]	pIC50 (HIV integrase [1]; [7])	pIC50 (HIV integrase [2]; [8])	remaining activity at 10 µM [3]
O=C(Nc1ccc2c(O)c(N=Nc3ccccc3)c(S(=O)(=O)O)cc2c1)Nc1ccc2c(O)c(N=Nc3ccccc3)c(S(=O)(=O)O)cc2c1 [Compound 4, calcomine orange, reference compound]	5.70	5.70	5.82					
O=C(Nc1ccc2c(O)c(N=Nc3ccc(C(=O)O)cc3)c(S(=O)(=O)O)cc2c1)Nc1ccc2c(O)c(N=Nc3ccc(C(=O)O)cc3)c(S(=O)(=O)O)cc2c1 [Compound 31]	6.15	6.40	6.41	active or moderately active				
O=C(O)Cc1ccc(N=Nc2c(S(=O)(=O)O)cc3cc(NC(=O)Nc4ccc5c(O)c(N=Nc6ccc(CC(=O)O)cc6)c(S(=O)(=O)O)cc5c4)ccc3c2O)cc1 [Compound 32]	6.15	5.70	6.30	active or moderately active				
O=C(O)CC(C(=O)O)c1ccc(N=Nc2c(S(=O)(=O)O)cc3cc(NC(=O)Nc4ccc5c(O)c(N=Nc6ccc(C(CC(=O)O)C(=O)O)cc6)c(S(=O)(=O)O)cc5c4)ccc3c2O)cc1 (centres unmarked) [Compound 33]	6.22	6.52	6.30					
O=C(Nc1ccc2c(O)c(N=Nc3cc(C(=O)O)ccc3C(=O)O)c(S(=O)(=O)O)cc2c1)Nc1ccc2c(O)c(N=Nc3cc(C(=O)O)ccc3C(=O)O)c(S(=O)(=O)O)cc2c1 [Compound 35]	5.70	6.10	6.30	active or moderately active				
O=C(O)CCCc1ccc(N=Nc2c(S(=O)(=O)O)cc3cc(NC(=O)Nc4ccc5c(O)c(N=Nc6ccc(CCCC(=O)O)cc6)c(S(=O)(=O)O)cc5c4)ccc3c2O)cc1 [Compound 36]	6.00	6.10	6.30	active or moderately active				
O=C(Nc1ccc2c(O)c(N=Nc3cnc4ccccc4c3)c(S(=O)(=O)O)cc2c1)Nc1ccc2c(O)c(N=Nc3cnc4ccccc4c3)c(S(=O)(=O)O)cc2c1 [Compound 37]	< 5.52	< 5.52			16%			
COc1cc(N=Nc2c(S(=O)(=O)O)cc3cc(NC(=O)Nc4ccc5c(O)c(N=Nc6cc(OC)cc(OC)c6)c(S(=O)(=O)O)cc5c4)ccc3c2O)cc(OC)c1 [Compound 38]	< 5.52	< 5.52			47%			
COc1ccc(N=Nc2c(S(=O)(=O)O)cc3cc(NC(=O)Nc4ccc5c(O)c(N=Nc6ccc(OC)c(OC)c6)c(S(=O)(=O)O)cc5c4)ccc3c2O)cc1OC [Compound 39]	5.52	5.70			12%			
COc1ccc(N=Nc2c(S(=O)(=O)O)cc3cc(NC(=O)Nc4ccc5c(O)c(N=Nc6ccc(OC)nc6OC)c(S(=O)(=O)O)cc5c4)ccc3c2O)c(OC)n1 [Compound 40]	< 5.52	< 5.52			31%			
O=C(Nc1ccc2c(O)c(N=Nc3ccc(Br)cc3Br)c(S(=O)(=O)O)cc2c1)Nc1ccc2c(O)c(N=Nc3ccc(Br)cc3Br)c(S(=O)(=O)O)cc2c1 [Compound 41]	< 4.70	< 4.70			66%			
CCOC(=O)c1ccccc1N=Nc1c(S(=O)(=O)O)cc2cc(NC(=O)Nc3ccc4c(O)c(N=Nc5ccccc5C(=O)OCC)c(S(=O)(=O)O)cc4c3)ccc2c1O [Compound 42]	< 5.52	< 5.52			47%			
CCOC(=O)c1cccc(N=Nc2c(S(=O)(=O)O)cc3cc(NC(=O)Nc4ccc5c(O)c(N=Nc6cccc(C(=O)OCC)c6)c(S(=O)(=O)O)cc5c4)ccc3c2O)c1 [Compound 43]	< 4.70	< 4.70			52%			
O=C(Nc1ccc2c(O)c(N=Nc3cccc([N+](=O)[O-])c3)c(S(=O)(=O)O)cc2c1)Nc1ccc2c(O)c(N=Nc3cccc([N+](=O)[O-])c3)c(S(=O)(=O)O)cc2c1 [Compound 45]					2.8%	< 5.52	< 5.52	
O=C(Nc1ccc2c(O)c(N=Nc3ccc([N+](=O)[O-])cc3)c(S(=O)(=O)O)cc2c1)Nc1ccc2c(O)c(N=Nc3ccc([N+](=O)[O-])cc3)c(S(=O)(=O)O)cc2c1 [Compound 46]					4.6%	< 5.52	< 5.52	
COC(=O)c1ccc(N=Nc2c(S(=O)(=O)O)cc3cc(NC(=O)Nc4ccc5c(O)c(N=Nc6ccc(C(=O)OC)cc6I)c(S(=O)(=O)O)cc5c4)ccc3c2O)c(I)c1 [Compound 47]	< 5.52	< 5.52			2%			

SMILES	pIC50 (HIV integrase [1]; [4])	pIC50 (HIV integrase [2]; [5])	pIC50 [3]	conclusion of cell-based anti-HIV (XTT) assays and reverse transcriptase (RT) assays (HIV)	remaining activity at 10 µM [3, 6]	pIC50 (HIV integrase [1]; [7])	pIC50 (HIV integrase [2]; [8])	remaining activity at 10 µM [3]
O=C(Nc1ccc2c(O)c(N=Nc3cccc4c(=O)[nH][nH]c(=O)c34)c(S(=O)(=O)O)cc2c1)Nc1ccc2c(O)c(N=Nc3cccc4c(=O)[nH][nH]c(=O)c34)c(S(=O)(=O)O)cc2c1 [Compound 49]	6.00	5.70			1%			
COc1cc(C(=O)O)c(N=Nc2c(S(=O)(=O)O)cc3cc(NC(=O)Nc4ccc5c(O)c(N=Nc6c(C(=O)O)cc(OC)c(OC)c6OC)c(S(=O)(=O)O)cc5c4)ccc3c2O)c(OC)c1OC [Compound 50]	5.70	5.70			1.3%			
O=C(Nc1ccc2c(O)c(N=Nc3cc(C(=O)O)cc(C(=O)O)c3)c(S(=O)(=O)O)cc2c1)Nc1ccc2c(O)c(N=Nc3cc(C(=O)O)cc(C(=O)O)c3)c(S(=O)(=O)O)cc2c1 [Compound 51]	6.05	6.30			1.1%			
O=C(Nc1ccc2c(O)c(N=Nc3c(Cl)cc(C(=O)O)cc3Cl)c(S(=O)(=O)O)cc2c1)Nc1ccc2c(O)c(N=Nc3c(Cl)cc(C(=O)O)cc3Cl)c(S(=O)(=O)O)cc2c1 [Compound 52]	6.30	6.70			1.3%			
Cc1cc(C(=O)O)ccc1N=Nc1c(S(=O)(=O)O)cc2cc(NC(=O)Nc3ccc4c(O)c(N=Nc5ccc(C(=O)O)cc5C)c(S(=O)(=O)O)cc4c3)ccc2c1O [Compound 53]	5.70	6.30	6.22	active or moderately active				
COc1cc(C(=O)O)ccc1N=Nc1c(S(=O)(=O)O)cc2cc(NC(=O)Nc3ccc4c(O)c(N=Nc5ccc(C(=O)O)cc5OC)c(S(=O)(=O)O)cc4c3)ccc2c1O [Compound 54]	5.70	5.40		active or moderately active	0.6%			
Cc1ccc(CO)cc1N=Nc1c(S(=O)(=O)O)cc2cc(NC(=O)Nc3ccc4c(O)c(N=Nc5cc(CO)ccc5C)c(S(=O)(=O)O)cc4c3)ccc2c1O [Compound 55]	< 5.52	< 5.52			24%			
COC(=O)/C=C/c1ccc(N=Nc2c(S(=O)(=O)O)cc3cc(NC(=O)Nc4ccc5c(O)c(N=Nc6ccc(/C=C/C(=O)OC)cc6)c(S(=O)(=O)O)cc5c4)ccc3c2O)cc1 [Compound 56]	< 5.52	< 5.52			27%			
O=C(Nc1ccc2c(O)c(N=Nc3ccc4oc(=O)ccc4c3)c(S(=O)(=O)O)cc2c1)Nc1ccc2c(O)c(N=Nc3ccc4oc(=O)ccc4c3)c(S(=O)(=O)O)cc2c1 [Compound 59]	6.00	5.70			2%			
COc1cc(N=Nc2c(S(=O)(=O)O)cc3cc(NC(=O)Nc4ccc5c(O)c(N=Nc6cc(OC)c(OC)cc6C(=O)O)c(S(=O)(=O)O)cc5c4)ccc3c2O)c(C(=O)O)cc1OC [Compound 60]	5.70	6.10			6%			
O=C(Nc1ccc2c(O)c(N=Nc3ccc(CP(=O)(O)O)cc3)c(S(=O)(=O)O)cc2c1)Nc1ccc2c(O)c(N=Nc3ccc(CP(=O)(O)O)cc3)c(S(=O)(=O)O)cc2c1 [Compound 61]	< 5.52	< 5.52						53%
O=C(O)/C=C/c1ccc(N=Nc2c(S(=O)(=O)O)cc3cc(NC(=O)C(=O)Nc4ccc5c(O)c(N=Nc6ccc(/C=C/C(=O)O)cc6)c(S(=O)(=O)O)cc5c4)ccc3c2O)cc1 [Compound 91]				active or moderately active				
COc1cc(C(=O)O)ccc1N=Nc1c(S(=O)(=O)O)cc2cc(NC(=O)C(=O)Nc3ccc4c(O)c(N=Nc5ccc(C(=O)O)cc5OC)c(S(=O)(=O)O)cc4c3)ccc2c1O [Compound 99]	6.52			active or moderately active				
Cc1cc(C(=O)O)ccc1N=Nc1c(S(=O)(=O)O)cc2cc(NC(=O)C(=O)Nc3ccc4c(O)c(N=Nc5ccc(C(=O)O)cc5C)c(S(=O)(=O)O)cc4c3)ccc2c1O [Compound 103]	> 6.00	> 6.00		active or moderately active				
Cc1cc2nc(N=Nc3c(S(=O)(=O)O)cc4cc(NC(=O)C(=O)Nc5ccc6c(O)c(N=Nc7nc8cc(C)c(C)cc8[nH]7)c(S(=O)(=O)O)cc6c5)ccc4c3O)[nH]c2cc1C [Compound 114]	6.52	6.00						
